Reference: patent US11477952B2, “Endophytic microbial seed treatment formulations and methods related thereto for improved plant performance” (ADVANCED BIOLOGICAL MARKETING, INC., priority 2017, dated 2022)

System: seedlings
Assay: Preliminary and greenhouse tests of 1-octen-3-ol on plant growth
Type: in vivo
Excerpt: These endophytic microorganisms frequently are fully symbiotic with plants (Harman, Howell, et al., 2004). These endophytic symbionts have abilities to induce multiple beneficial effects in plants, including induced resistance to diseases and potentially other pests; resistance to abiotic stresses such as drought, salt and flooding; improved efficiency of uses of nitrogen and other plant nutrients; enhancement of seed germination and seedling vigor; and enhanced plant growth and development. There are numerous diverse genera of microbes that induce at least most of these changes in plant performance, including mycorrhizae, plant growth promoting rhizobacteria, and Basidomycetous fungi in the Sebaciles such as Piriformaspora indica. These organisms have an endophytic versus a plant pathogenic life style (Shoresh, Mastouri, et al., 2010) typical of numerous other plant-associated microorganisms. The systemic changes in plant gene expression are presumed to be induced by the production of specific triggering metabolites from these different organisms. […]
Unexpected is the effect of the OMEGA biorational seed treatments that contain the fungal metabolite 1-octen-3-ol, yeast extract and humic acid (Leonardite shale). […] Thus the quantities applied are very small and cannot grow or proliferate on or in plants so their effects were expected to be transitory. […]

Compound: C=CC(O)CCCCC (centres unmarked) [1-octen-3-ol]
- seedling growth (greenhouse, 200 to 20,000 pL in different formulations, data not shown): plant growth promotive effects on seedling growth
- plant growth (very low concentrations, preliminary work): strongly enhances plant growth
